Patent publication US20080293090A1, “AUTOMATED SEMI-SOLID MATRIX ASSAY AND LIQUID HANDLER APPARATUS FOR THE SAME” (AVENTIS PHARMACEUTICALS INC., priority 2001, published 2008)
Where a name gives a salt, the structure may show the parent alone.

Legend:
Format in all cases: cell-based
MDA-MB435 = test: Soft agar assay, flavopiridol on already formed one week colonies; settings: Homo sapiens, MDA-MB-435, 168 h, added to colonies formed after 7 days of incubation, read-out: Flavopiridol IC50 (uM) on Formed Colonies, Average ± Standard Error
Description: (§1) 25 μL of 10 μM calcein AM (in HBSS) is added to each well and allowed to incubate at 37 deg. C. for at least one hour. The plate is then read in a Cytofluor™ 4000 (3 counts/well) with a gain of 40. The fluorescence for calcein AM (after cleavage in live cells) is excitation=485+20 nm and emission=530+20 nm.
(§2) For analysis, the data provided by the CytoFluor™ are analyzed in EXCEL™. The DMSO control wells are averaged and the standard deviation determined. Each compound well is then divided by the control average×100 for % control. The triplicate wells are averaged and the standard deviation determined. […] The background can be subtracted from each well. Statistical programs such as PRISM could also be used for the graphing and IC50 determination.
(§3) Flavopiridol is added to colonies formed after 7 days of incubation at 37 deg.

Colo 205 = test: as above; settings: Homo sapiens, 168 h, added to colonies formed after 7 days of incubation, read-out: Flavopiridol IC50 (uM) on Formed Colonies, Average ± Standard Error
Description: as §1, §2, §3

tumor cells [1] = test: Traditional soft agar assay, 24-well tray, visual counting of colonies; settings: for IC50: read-out: IC50s Determined from Colony Counting; for Average # of colonies: 24-well tray
Description: As a comparison, the same compounds were tested in the traditional hand-pipetted, 24-well plates, visually counted method. The only difference was that the soft agar assay used a 500 μL agarose layer in the 24-well plate and 75 uL/layer in the 96-well system, using the Sigma agarose. The 24-well plates were also counted visually, Table 5, and the IC50s determined, Table 6.

tumor cells [2] = test: Automated soft agar assay, 96-well plates, Calcein AM stained method; settings: read-out: IC50s (μM) with Flavopiridol 96-well
Description: It was determined that when plating with the test compound, the individual components, i.e., agarose, cells and compound, were more evenly distributed if premixed in a separate plate before being transferred to the 96-well plate. The test compounds were made 10× in RPMI GM, which was diluted to a 1× compound concentration in the mixing plate. […] Satisfactory results were obtained with the following combinations: 25 μL of 10 μM calcein AM (in HBSS) is added to each well and allowed to incubate at 37 deg. C. for at least one hour. […] The fluorescence for calcein AM (after cleavage in live cells) is excitation=485+20 nm and emission=530+20 nm. For analysis, the data provided by the CytoFluor™ are analyzed in EXCEL™. The DMSO control wells are averaged and the standard deviation determined. Each compound well is then divided by the control average×100 for % control. The triplicate wells are averaged and the standard deviation determined. There is some background fluorescence and the colonies treated after formation are not eliminated by the single two-week treatment. The background can be subtracted from each well. Statistical programs such as PRISM could also be used for the graphing and IC50 determination. […] As a comparison, the same compounds were tested in the traditional hand-pipetted, 24-well plates, visually counted method. The only difference was that the soft agar assay used a 500 μL agarose layer in the 24-well plate and 75 uL/layer in the 96-well system, using the Sigma agarose. The two methods produced similar results, i.e. IC50s for the compounds, see Table 4.

HL-60 = test: Soft agar assay, flavopiridol on already formed one week colonies; settings: Homo sapiens, 168 h, added to colonies formed after 7 days of incubation, read-out: Flavopiridol IC50 (uM) on Formed Colonies, Average ± Standard Error
Description: as §1
(§4) For analysis, the data provided by the CytoFluor™ are analyzed in EXCEL™. The DMSO control wells are averaged and the standard deviation determined. Each compound well is then divided by the control average×100 for % control. The triplicate wells are averaged and the standard deviation determined. There is some background fluorescence and the colonies treated after formation are not eliminated by the single two-week treatment. The background can be subtracted from each well. Statistical programs such as PRISM could also be used for the graphing and IC50 determination.
(§5) Table 7. provides the IC50 in micromolar values obtained using flavopiridol on already formed colonies of a number of different cell lines (one week colonies). Flavopiridol is added to colonies formed after 7 days of incubation at […]. This method of adding compounds to already formed colonies may be more predictive for the compound's effectiveness against a tumor in vivo.

NCI-H460 = test: as above; settings: Homo sapiens, 168 h, added to colonies formed after 7 days of incubation, read-out: Flavopiridol IC50 (uM) on Formed Colonies, Average ± Standard Error
Description: as §1, §4, §5

PC-3 = test: as above; settings: Homo sapiens, 168 h, added to colonies formed after 7 days of incubation, read-out: Flavopiridol IC50 (uM) on Formed Colonies, Average ± Standard Error
Description: as §1, §4, §5

tumor cells [3] = test: Soft agar assay, hand-pipetted 24-well plates, Calcein AM stained method
Description: 25 μL of 10 μM calcein AM (in HBSS) is added to each well and allowed to incubate at 37 deg. C. for at least one hour. […] The fluorescence for calcein AM (after cleavage in live cells) is excitation=485+20 nm and emission=530+20 nm. For analysis, the data provided by the CytoFluor™ are analyzed in EXCEL™. The DMSO control wells are averaged and the standard deviation determined. Each compound well is then divided by the control average×100 for % control. The triplicate wells are averaged and the standard deviation determined. There is some background fluorescence and the colonies treated after formation are not eliminated by the single two-week treatment. The background can be subtracted from each well. Statistical programs such as PRISM could also be used for the graphing and IC50 determination. […] As a comparison, the same compounds were tested in the traditional hand-pipetted, 24-well plates, visually counted method. The only difference was that the soft agar assay used a 500 μL agarose layer in the 24-well plate and 75 uL/layer in the 96-well system, using the Sigma agarose. The two methods produced similar results, i.e. IC50s for the compounds, see Table 4.

[4] = flavopiridol added immediately after plating

CN1CC[C@H](c2c(O)cc(O)c3c(=O)cc(-c4ccccc4Cl)oc23)[C@H](O)C1 [Flavopiridol, (cis-(−)-5,7-Dihydroxy-2-(2-chlorophenyl)-8-[4-(3-hydroxy-1-methyl)piperidinyl]-4H-1-benzopyran-4-one hydrochloride dihydrate]
IC50 (MDA-MB435): 2.2 ± 0.09 µM | IC50 (Colo 205): 1.4 ± 0.06 µM | IC50 (tumor cells [1]; added immediately after plating, 24-well, visual counting): 400 nM | IC50s Determined from Colony Counting (tumor cells [1]; added to 1-week colonies, 24-well, visual counting): did not reach 50% control. | Average # of colonies (tumor cells [1]; flavopiridol added immediately after plating, 0.00032 μM): 30 | Average # of colonies (tumor cells [1]; flavopiridol added immediately after plating, 0.0016 μM): 30 | Average # of colonies (tumor cells [1]; flavopiridol added immediately after plating, 0.008 μM): 32 | Average # of colonies (tumor cells [1]; flavopiridol added immediately after plating, 0.04 μM): 26 | Average # of colonies (tumor cells [1]; flavopiridol added immediately after plating, 0.2 μM): 27 | Average # of colonies (tumor cells [1]; flavopiridol added immediately after plating, 1 μM): 0 | Average # of colonies (tumor cells [1]; flavopiridol added immediately after plating, 5 μM): 0 | Average # of colonies (tumor cells [1]; flavopiridol added to one-week colonies, 0.0032 μM): 34.0 | Average # of colonies (tumor cells [1]; flavopiridol added to one-week colonies, 0.016 μM): 35.0 | Average # of colonies (tumor cells [1]; flavopiridol added to one-week colonies, 0.08 μM): 32.0 | Average # of colonies (tumor cells [1]; flavopiridol added to one-week colonies, 0.4 μM): 33 | Average # of colonies (tumor cells [1]; flavopiridol added to one-week colonies, 2 μM): 25 | Average # of colonies (tumor cells [1]; flavopiridol added to one-week colonies, 10 μM): 32 | Average # of colonies (tumor cells [1]; flavopiridol added to one-week colonies, 50 μM): 20 | IC50 (tumor cells [1]; plated with Flavo, 24-well, visual counting): 90 nM | Average # of colonies (tumor cells [1]; plated with flavopiridol, 0.00032 μM): 27 | Average # of colonies (tumor cells [1]; plated with flavopiridol, 0.0016 μM): 25 | Average # of colonies (tumor cells [1]; plated with flavopiridol, 0.008 μM): 22 | Average # of colonies (tumor cells [1]; plated with flavopiridol, 0.04 μM): 25 | Average # of colonies (tumor cells [1]; plated with flavopiridol, 0.2 μM): 0 | Average # of colonies (tumor cells [1]; plated with flavopiridol, 1 μM): 0 | Average # of colonies (tumor cells [1]; plated with flavopiridol, 5 μM): 0 | IC50 (tumor cells [2]; 168 h, flavopiridol added to one week colonies): 1 µM | IC50 (tumor cells [2]; cells plated with flavopiridol): 0.15 µM | IC50 (tumor cells [2]; [4]): 0.6 µM | IC50 (HL-60): 1.6 ± 0.15 µM | IC50 (NCI-H460): 2.4 ± 0.1 µM | IC50 (PC-3): 1.7 ± 0.04 µM | IC50 (tumor cells [3]; cells plated with flavopiridol): 0.08 µM | IC50 (tumor cells [3]; [4]): 0.4 µM
